Here are results for six compounds from patent US4137322A, “ML-236B carboxylic acid derivatives and their use as antihyperlipemic agents” (Sankyo Company Limited, priority 1976, dated 1979).

One data set deals with cholesterol biosynthesis. Put plainly: Inhibition of cholesterol biosynthesis. It counts as biochemical.
In data set [1] the test system is total serum cholesterol in beagle dogs. Put plainly: Lowering activity of blood cholesterol in beagle dogs. As to conditions: beagle dogs, oral twice per day, 5 days; for inhibition in vivo at 25 mg/kg/day / inhibition in vivo at 100 mg/kg/day: Canis lupus familiaris, po, 120 h, read-out: Lowering rate of total serum cholesterol. It counts as in vivo, beagle dog. The text has this: The test was to orally administer an encapsulated test sample twice per day, in the morning (9 o'clock) and evening (16 o'clock), for continuous 5 days, collect a blood sample in the morning after 5 days and determine a total cholesterol level in serum by a conventional method.

Data set [2] deals with serum cholesterol in rats. The experiment in a line: Lowering activity of blood cholesterol in rats. As to conditions: rats, oral, after 18 hours; for inhibition in vivo at 5 mg/kg / inhibition in vivo at 20 mg/kg: Rattus norvegicus, po, 18 h, read-out: Lowering rate of serum cholesterol. In kind it is in vivo, rat. The procedure:
A lowering activity of blood cholesterol in rats was assayed on rats. The test was to orally administer a test sample suspended in water, collect a blood sample after 18 hours and determine a cholesterol level in serum by a conventional method.

The next data set has as its system Mouse. The experiment in a line: Acute toxicity in mouse. The settings on record: aqueous suspension. How it is done:
(§1) Acute toxicity of ML-236B carboxylic acid derivatives (I) was determined in oral and intraperitoneal administration (both as an aqueous suspension).

The next data set relates to Rat. Put plainly: Acute toxicity in rat. The settings on record: aqueous suspension. How it is done:
as §1

Data set [3] has as its target T1, 3-hydroxy-3-methylglutaryl-CoA reductase (Rattus norvegicus, UniProt P51639).
T1 construct: Employed as an enzyme microsome of rat liver; from tissue; host or cells: rat liver microsomes
T1 sequence (P51639 1-887): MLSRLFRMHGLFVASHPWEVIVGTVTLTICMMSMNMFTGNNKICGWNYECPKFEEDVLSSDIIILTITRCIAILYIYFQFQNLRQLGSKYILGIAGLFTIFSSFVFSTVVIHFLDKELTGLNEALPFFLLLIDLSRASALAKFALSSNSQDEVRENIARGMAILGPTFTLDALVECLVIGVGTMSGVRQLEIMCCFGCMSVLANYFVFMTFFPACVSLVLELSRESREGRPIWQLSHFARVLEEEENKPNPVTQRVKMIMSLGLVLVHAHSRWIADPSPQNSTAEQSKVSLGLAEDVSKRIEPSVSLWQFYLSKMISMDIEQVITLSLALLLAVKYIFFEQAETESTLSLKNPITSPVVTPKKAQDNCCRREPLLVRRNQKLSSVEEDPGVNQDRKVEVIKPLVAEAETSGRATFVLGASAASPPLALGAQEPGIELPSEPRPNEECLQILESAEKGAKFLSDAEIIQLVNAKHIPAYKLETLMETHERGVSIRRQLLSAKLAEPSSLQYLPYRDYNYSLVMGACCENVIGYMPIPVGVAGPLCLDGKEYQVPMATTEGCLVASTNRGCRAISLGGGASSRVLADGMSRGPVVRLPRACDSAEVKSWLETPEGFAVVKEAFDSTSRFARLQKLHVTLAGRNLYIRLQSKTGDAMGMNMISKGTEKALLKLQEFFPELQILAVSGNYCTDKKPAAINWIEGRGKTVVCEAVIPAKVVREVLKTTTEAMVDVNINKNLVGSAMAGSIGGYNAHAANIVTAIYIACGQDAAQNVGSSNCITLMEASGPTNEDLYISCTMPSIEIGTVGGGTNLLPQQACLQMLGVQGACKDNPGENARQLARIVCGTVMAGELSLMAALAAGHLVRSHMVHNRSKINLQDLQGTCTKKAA
Put plainly: Inhibition of 3-hydroxy-3-methylglutaryl-CoA reductase. As to conditions: enzyme: microsome of rat liver; read-out: Concentration to inhibit 50% of 3-hydroxy-3-methylglutaryl-CoA reductase (converted). It counts as biochemical. The source says:
Inhibition activity of cholesterol biosynthesis [determined according to the method disclosed in J. Biol. Chem., 234, 2835 (1959)] and inhibition activity on 3-hydroxy-3-methylglutaryl-CoA reductase [determined according to the method disclosed in Anal. Biochem., 31, 383 (1969)] of these compounds are summarized in Table 1.
*Employed as an enzyme microsome of rat liver.

The nature of another data set: Acute toxicity in mouse. The settings on record: in vivo, ip, LD50, mouse, aqueous suspension. How it is done: as §1
The next data set can be described thus: Acute toxicity in rat. As to conditions: in vivo, LD50, rat, aqueous suspension. How it is done: as §1
The mark [4] stands for this setting: p.o., listed as ML-236B Na salt.

Molecules are shown by their SMILES. Counter-ions that a name gives are not always drawn. Bounds are passed on as bounds.

Usually LD50 stands for the dose at which mortality reaches 50%. For the compound `CCC(C)C(=O)OC1CCC=C2C=CC(C)C(CCC(O)CC(O)CC(=O)O)C21` (stereo not shown) [Al, Aluminum ML-236B carboxylate], in the data set with cholesterol biosynthesis, the “Concentration to inhibit 50% of cholesterol biosynthesis” value came out at 0.006 µg/mL. The “Lowering rate of total serum cholesterol” value in data set [1] (25 mg/kg/day) stood at 26%; in data set [1] (100 mg/kg/day) it was 41%. The “Lowering rate of serum cholesterol” value was 18.3% in data set [2] (5 mg/kg, 5 mg/kg) and 22.1% in data set [2] (20 mg/kg, 20 mg/kg). Further, the LD50 was above 500 mg/kg in the data set with Mouse (i.p.); > 2,000 mg/kg with Mouse (p.o., listed as Al salt); above 500 mg/kg in the data set on Rat (i.p.); > 2,000 mg/kg with Rat (p.o., listed as Al salt).

Take `CCC(C)C(=O)OC1CCC=C2C=CC(C)C(CCC(O)CC(O)CC(=O)O)C21` (stereo not shown) [Arginine, Arginine salt of ML-236B carboxylic acid]: the “Concentration to inhibit 50% of cholesterol biosynthesis” value with cholesterol biosynthesis is 0.007 µg/mL. Further, the IC50 in data set [3] is 441 nM. The “Lowering rate of total serum cholesterol” value in data set [1] (25 mg/kg/day) is 26%; in data set [1] (100 mg/kg/day), 45%. Besides, the “Lowering rate of serum cholesterol” value in data set [2] (5 mg/kg, 5 mg/kg) is listed as 19.6%; in data set [2] (20 mg/kg, 20 mg/kg) it was 24.1%. Also, the LD50 is given as above 500 mg/kg in the data set with Mouse (i.p.), > 5,000 mg/kg with Mouse (p.o.), above 500 mg/kg in the data set on Rat (i.p.) and > 5,000 mg/kg in the data set with Rat (p.o.).

On to `CCC(C)C(=O)OC1CCC=C2C=CC(C)C(CCC(O)CC(O)CC(=O)O)C21` (stereo not shown) [Ca, Calcium ML-236B carboxylate], for which, in the data set with cholesterol biosynthesis, the “Concentration to inhibit 50% of cholesterol biosynthesis” value was 0.006 µg/mL. The “Lowering rate of total serum cholesterol” value is recorded as 28% in data set [1] (25 mg/kg/day) and 44% in data set [1] (100 mg/kg/day). Further, the “Lowering rate of serum cholesterol” value in data set [2] (5 mg/kg, 5 mg/kg) was 16.5%; in data set [2] (20 mg/kg, 20 mg/kg) it was 20.9%. In addition, the LD50 is recorded as above 500 mg/kg in the data set with Mouse (i.p.); > 2,000 mg/kg with Mouse (p.o., listed as Ca salt); above 500 mg/kg with Rat (i.p.); > 2,000 mg/kg with Rat (p.o., listed as Ca salt).

Regarding `CCC(C)C(=O)OC1CCC=C2C=CC(C)C(CCC(O)CC(O)CC(=O)O)C21` (stereo not shown) [Lysine, Lysine salt of ML-236B carboxylic acid], the “Concentration to inhibit 50% of cholesterol biosynthesis” value with cholesterol biosynthesis worked out at 0.006 µg/mL. In addition, the “Lowering rate of total serum cholesterol” value in data set [1] (25 mg/kg/day) worked out at 24%; in data set [1] (100 mg/kg/day) it was 44%. Moreover, the “Lowering rate of serum cholesterol” value was 16.9% in data set [2] (5 mg/kg, 5 mg/kg) and 23.8% in data set [2] (20 mg/kg, 20 mg/kg). The LD50 with Mouse (i.p.) was above 500 mg/kg; with Mouse (p.o.) it was > 5,000 mg/kg; with Rat (i.p.) it was above 500 mg/kg; with Rat (p.o.), > 5,000 mg/kg.

`CCC(C)C(=O)OC1CCC=C2C=CC(C)C(CCC(O)CC(O)CC(=O)O)C21` (stereo not shown) [Na, Sodium ML-236B carboxylate]: the “Concentration to inhibit 50% of cholesterol biosynthesis” value with cholesterol biosynthesis turned out to be 0.006 µg/mL. For the same compound, the IC50 in data set [3] is 392 nM. For the same compound, in data set [1] (25 mg/kg/day), the inhibition in vivo at 25 mg/kg/day turned out to be 24%. Also, in data set [1] (100 mg/kg/day), the inhibition in vivo at 100 mg/kg/day was 47%. For the same compound, the inhibition in vivo at 5 mg/kg in data set [2] (5 mg/kg) worked out at 20.6%. In data set [2] (20 mg/kg), the inhibition in vivo at 20 mg/kg worked out at 23.1%. The 50% lethal dose (LD50) is above 500 mg/kg in “Acute toxicity in mouse”, > 2,000 mg/kg in the data set with Mouse (setting [4]), above 500 mg/kg in the data set “Acute toxicity in rat” (ip) and > 2,000 mg/kg with Rat (setting [4]).

On to `CCC(C)C(=O)OC1CCC=C2C=CC(C)C(CCC(O)CC(O)CC(=O)OCC(=O)c3ccccc3)C21` (stereo not shown) [phenacyl, Phenacyl ML-236B carboxylate], for which the “Concentration to inhibit 50% of cholesterol biosynthesis” value in the data set on cholesterol biosynthesis was 0.01 µg/mL. Also, the IC50 in data set [3] was 380 nM. The inhibition in vivo at 25 mg/kg/day in data set [1] (25 mg/kg/day) was 32%. The inhibition in vivo at 100 mg/kg/day in data set [1] (100 mg/kg/day) turned out to be 42%. In addition, in data set [2] (5 mg/kg), the inhibition in vivo at 5 mg/kg came to 14%. Further, the inhibition in vivo at 20 mg/kg in data set [2] (20 mg/kg) stood at 21%. Further, the 50% lethal dose (LD50) is above 500 mg/kg in “Acute toxicity in mouse” and above 2000 mg/kg in “Acute toxicity in rat” (po).
